In brackets after ≈: the same amount, converted by molar mass. Counter-ions that a name gives are not always drawn.
Experiments:
[1] = Aqueous solubility at two pH levels; assay type: physicochemical; settings: aqueous solution
Rat PK (p.o.) = assay type: in vivo; settings: plasma, po
HCT116 cells = settings: Ying et al. 2008b; cited from earlier work
[2] = system: HDAC proteins from class I and class II; settings: purified full length HDAC proteins; Bowers et al. 2008; cited from earlier work
melanoma cell lines = settings: series of melanoma cell lines; Bowers et al. 2008; cited from earlier work
MDA-MB231 = settings: Taori et al. 2008; cited from earlier work
HDAC = settings: cells treated with compound; Ying et al. 2008a; read-out: IC50 HDAC inhibition; cited from earlier work
HEK293 = HEK293 normal cell line; Zeng et al. 2010; cited from earlier work
HLF cells = settings: HLF normal cell line; Zeng et al. 2010; cited from earlier work
HCT 116 cells = settings: Zeng et al. 2010; cited from earlier work
[3] = 10 mg/kg, Vehicle (0.02N HCl sol.)
[4] = 15 mg/kg, Vehicle (0.1N citrate buffer)

SMILES	solubility ([1]; pH 3, aqueous buffer) [mg/mL]	solubility ([1]; pH 6, aqueous buffer) [mg/mL]	AUC(0-inf) (Rat PK (p.o.); [3]) [ng·h/mL]	Cmax (Rat PK (p.o.); [3]) [ng/mL]	Tmax (Rat PK (p.o.); [3]) [min]	half-life (Rat PK (p.o.); [3]) [min]	other results
CC(C)[C@H](N)C(=O)SCC/C=C/[C@@H]1CC(=O)NCc2nc(cs2)C(=O)NC(C)(C)C(=O)N[C@@H](C(C)C)C(=O)O1.Cl [Example 2, (S)—S-((E)-4-((7S,10S)-7-isopropyl-4,4-dimethyl-2,5,8,12-tetraoxo-9-oxa-16-thia-3,6,13,18-tetraazabicyclo[13.2.1]octadeca-1(17),15(18)-dien-10-yl)but-3-en-1-yl) 2-amino-3-methylbutanethioate Hydrochloride]	12.3	18	267	123	28.8	494	
CC(C)[C@@H]1NC(=O)C(C)(C)NC(=O)c2csc(n2)CNC(=O)C[C@@H](/C=C/CCSC(=O)c2cccnc2)OC1=O [Example 7, S-((E)-4-((7S,10S,Z)-7-isopropyl-4,4-dimethyl-2,5,8,12-tetraoxo-9-oxa-3,6,13-triaza-1(4,2)-thiazolacyclotetradecaphane-10-yl)but-3-en-1-yl) pyridine-3-carbothioate]			240	150	19.8	413	
CC(C)[C@@H]1NC(=O)C(C)(C)NC(=O)c2csc(n2)CNC(=O)C[C@@H](/C=C/CCSC(=O)[C@H](C)N)OC1=O [Example 4, (S)—S-((E)-4-((7S,10S)-7-isopropyl-4,4-dimethyl-2,5,8,12-tetraoxo-9-oxa-16-thia-3,6,13,18-tetraazabicyclo[13.2.1]octadeca-1(17),15(18)-dien-10-yl)but-3-en-1-yl) 2-aminopropanethioate Oxalate]	15.4	25.2	176	51	60	365	
CC(C)[C@@H]1NC(=O)C(C)(C)NC(=O)c2csc(n2)CNC(=O)C[C@@H](/C=C/CCSC(=O)CN(C)C)OC1=O [Example 6, S-((E)-4-((7S,10S)-7-isopropyl-4,4-dimethyl-2,5,8,12-tetraoxo-9-oxa-16-thia-3,6,13,18-tetraazabicyclo[13.2.1]octadeca-1(17),15(18)-dien-10-yl)but-3-en-1-yl) 2-(dimethylamino)ethanethioate]	2.45 (≈ 4.32 mM)	2.32 (≈ 4.09 mM)	272	107	49.8	352	
CCCCCCCC(=O)SCC/C=C/[C@@H]1CC(=O)NCc2nc(cs2)C2=N[C@@](C)(CS2)C(=O)N[C@@H](C(C)C)C(=O)O1 [largazole, Largazole]							GI50 (HCT116 cells): 44 nM; HDAC inhibition in vitro compared to the thiol [2]: much weaker HDAC inhibitor; preference for HDACs 1, 2, and 3 over HDAC6 [2]: pronounced preference; IC50 (melanoma cell lines): 45 to 315 nM; GI50 (MDA-MB231): 7.7 nM; IC50 (HDAC): 51 nM; GI50 (HEK293): 1360 nM; GI50 (HLF cells): 980 nM; GI50 (HCT 116 cells): 80 nM
CC(C)[C@@H]1NC(=O)C(C)(C)NC(=O)c2csc(n2)CNC(=O)C[C@@H](/C=C/CCSC(=O)[C@@H](C)N)OC1=O [Example 5, (R)—S-((E)-4-((7S,10S)-7-isopropyl-4,4-dimethyl-2,5,8,12-tetraoxo-9-oxa-16-thia-3,6,13,18-tetraazabicyclo[13.2.1]octadeca-1(17),15(18)-dien-10-yl)but-3-en-1-yl) 2-aminopropanethioate Oxalate]	45.5	41.8					
CC(C)[C@@H]1NC(=O)C(C)(C)NC(=O)c2csc(n2)CNC(=O)C[C@@H](/C=C/CCSC(=O)[C@H](N)C(C)C)OC1=O.Cl [Example 1, (R)—S-((E)-4-((7S,10S)-7-isopropyl-4,4-dimethyl-2,5,8,12-tetraoxo-9-oxa-16-thia-3,6,13,18-tetraazabicyclo[13.2.1]octadeca-1(17),15(18)-dien-10-yl)but-3-en-1-yl) 2-amino-3-methylbutanethioate Hydrochloride]	8.67	10.5	257	86	25.2	512	
CC(C)[C@H](N)C(=O)SCC/C=C/[C@@H]1CC(=O)NCc2nc(cs2)C(=O)NC(C)(C)C(=O)N[C@@H](C(C)C)C(=O)O1.O=S(=O)(O)c1ccccc1 [Example 3, (S)—S-((E)-4-((7S,10S)-7-isopropyl-4,4-dimethyl-2,5,8,12-tetraoxo-9-oxa-16-thia-3,6,13,18-tetraazabicyclo[13.2.1]octadeca-1(17),15(18)-dien-10-yl)but-3-en-1-yl) 2-amino-3-methylbutanethioate Benzenesulfonate]	7.5						AUC(0-inf) (Rat PK (p.o.); [4]): 583 ng·h/mL; Cmax (Rat PK (p.o.); [4]): 253 ng/mL; Tmax (Rat PK (p.o.); [4]): 36 min; half-life (Rat PK (p.o.); [4]): 744 min
CC(C)[C@@H]1NC(=O)[C@]2(C)CSC(=N2)c2csc(n2)CNC(=O)C[C@@H](/C=C/CCS)OC1=O [largazole thiol]							GI50 (HCT116 cells): 38 nM; IC50 (melanoma cell lines): 380 to 2600 nM; IC50 (HDAC): 209 nM

Source: patent publication US11203602B2, “Thioester prodrugs of macrocycles as inhibitors of histone deacetylases” (OnKure, Inc., priority 2016, dated 2021)
